Tested on: Swiss albino mice
Assay: Hematological and biochemical evaluation after 90-day daily oral dosing
Format: in vivo
Settings: for HCT / HGB / MCHC / MCV / PLT / RBC-H / WBC-H: mean ± SD; for ALP, plasma / ALT, plasma / AST, plasma / BUN, plasma / CREAT (creatinine), plasma / GLU (glucose), plasma: mean ± SEM
Method: For the 90-day daily oral dosing sub-chronic toxicity study, twenty male and twenty female healthy 8-week-old Swiss albino mice were randomly selected and randomized to […] (n = 5/sex/group). Mice received free access to purified drinking water and high-fat diet (HFD) pelleted rodent chow (11.4% total fat, no. 7004, Envigo/Teklad, Madison, WI, USA) until the day before sacrifice, at which time they were fasted for 8 h and allowed only free access to drinking water. Daily doses of PsA (10, 40, 80 mg/kg body weight) were administered to the mice formulated in <5% DMSO (Mediatech Inc., Manassas, VA, USA) and <0.2% Tween 80 (Croda Inc., Princeton, NJ, USA) at a volume not exceeding 1% of body weight by metal oral gavage (2 mm diameter with stainless steel bite protector, 18-gauge, 3.81 cm long). […] The mice were observed weekly until the completion of the study. The body weights of the mice were measured in grams using a Scout^TM Pro (Ohaus Corp., Pine Brook, NJ, USA) on day 0, 4, 8, 11, 14, 21, 28, 35, 42, 49, 56, 63, 70, 77, 83, and 90 after initial treatment. On day 90, all mice were anesthetized using isoflurane (USP-vaporizer method, Matrix VIP-3000, Covetrus, Dublin, OH, USA, exposure of animals in an anesthesia chamber at 3% isoflurane vaporization rate. Exposure time 2 min). Mice were then euthanized by cervical dislocation according to the 2020 AVMA Guidelines on Euthanasia and dissected. Mice organs (brain, liver, kidney, heart, lungs, spleen) were excised and weighed for histopathological examination. The organs were stored in 10% neutral buffered formalin (Avantor Science Central, Allentown, PA, USA) for 24 h and then transferred to 70% ethanol (AAPER ALCOHOL, Shelbyville, KY, USA). This study was performed following the OECD guideline 408 for the testing of chemicals.
On the day of sacrifice, mice were decapitated, and the blood was quickly collected into a green-topped Lithium Heparin 400 µL blood collection tube (BD Microtainer REF# 365965) as well as a purple-topped K2 EDTA (K2E) 500 µL blood collection tube (BD Microtainer, Cat# 365974) to ensure all blood samples were collected free of clots. The Li Heparin samples were immediately centrifuged at 13,000× g for 10 min, and the plasma was transferred to 1.5 mL Eppendorf tubes free of Li heparin for biochemical analysis. Plasma samples were analyzed for AST, ALT, ALP, glucose, BUN, and creatinine levels using the Beckman AU680 clinical chemistry analyzer system (Beckman Coulter, Atlanta, GA, USA). The ETDA samples were analyzed for hematological parameters, and WBC, RBC, Hgb, Hct, MCV, MCHC, and PLT were determined using the Siemens Advia 120 hematology analyzer (Siemens Healthcare Diagnostics Inc., Tarrytown, NY, USA). All blood samples were analyzed at the LSU School of Veterinary Medicine Clinical Pathology Laboratory at Baton Rouge, Louisiana.
Results for the hematological and biochemical parameters were analyzed separately by One-way Analysis of Variance (ANOVA), followed by multiple comparisons with Dunnett’s test. All statistical analyses were performed using GraphPad Prism version 8 software (San Diego, CA, USA). Data in this study were expressed as a mean ± SD (standard deviation) and mean ± SEM (standard error of mean). A probability value of <0.05 was considered statistically significant (* p < 0.05; ** p < 0.01; and *** p < 0.001).

[1] = female, 10mg/kg daily oral 90 days
[2] = female, 40mg/kg daily oral 90 days
[3] = female, 80mg/kg daily oral 90 days
[4] = male and female treatment groups, 90 days
[5] = male, 10mg/kg daily oral 90 days
[6] = male, 40mg/kg daily oral 90 days
[7] = male, 80mg/kg daily oral 90 days

Structure (SMILES): CC/C=C\[C@H](O)[C@H](O)C1=C(C)C(=O)[C@]2(O1)C(=O)N[C@@](OC)(C(=O)c1ccccc1)[C@@H]2O [PsA, pseurotin A]
- AST level versus control (all male dosing groups, 90 days): significantly lower
- AST level versus control (female treatment groups, 90 days): significant reduction
- HCT [1]: 48.5 ± 6.0%
- HGB [1]: 12.5 ± 0.3 g/dL
- MCHC [1]: 26.2 ± 3.0 g/dL
- MCV [1]: 52.1 ± 5.0 fL
- PLT [1]: 459.0 ± 99.1 103/μL
- RBC-H [1]: 9.3 ± 0.3 106/μL
- WBC-H [1]: 6.5 ± 0.6 103/μL
- ALP, plasma [1]: 78.0 ± 3.8 U/L
- ALT, plasma [1]: 34.3 ± 1.9 U/L
- AST, plasma [1]: 61.7 ± 6.4 U/L
- BUN, plasma [1]: 22.0 ± 0.6 mg/dL
- CREAT (creatinine), plasma [1]: 0.2 ± 0.0 mg/dL
- GLU (glucose), plasma [1]: 291.7 ± 6.5 mg/dL
- ALP, plasma [2]: 68.0 ± 3.8 U/L
- ALT, plasma [2]: 34.5 ± 1.9 U/L
- AST, plasma [2]: 67.8 ± 7.1 U/L
- BUN, plasma [2]: 17.5 ± 0.4 mg/dL
- CREAT (creatinine), plasma [2]: < 0.2 ± 0.0 mg/dL
- GLU (glucose), plasma [2]: 259.0 ± 5.7 mg/dL
- ALP, plasma [3]: 86.8 ± 13.4 U/L
- ALT, plasma [3]: 30.3 ± 3.4 U/L
- AST, plasma [3]: 81.3 ± 17.8 U/L
- BUN, plasma [3]: 18.5 ± 2.1 mg/dL
- CREAT (creatinine), plasma [3]: 0.2 ± 0.0 mg/dL
- GLU (glucose), plasma [3]: 235.3 ± 19.4 mg/dL
- plasma ALT level versus control (female, all three treatment groups, 90 days): significantly lower
- BUN level versus control (male 10 mg/kg, female 40 mg/kg and female 80 mg/kg groups, 90 days): significantly lower
- MCV versus control (male 40 mg/kg group, 90 days): significantly higher
- ALP and plasma glucose levels [4]: no significant changes
- CREAT levels [4]: no significant change
- WBC-H, RBC-H, HGB, HCT, MCHC, PLT versus control (male up to 80 mg/kg, female 10 mg/kg, 90 days): did not show any significant changes
- HCT [5]: 41.0 ± 3.0%
- HGB [5]: 11.8 ± 0.4 g/dL
- MCHC [5]: 28.8 ± 2.5 g/dL
- MCV [5]: 49.6 ± 2.5 fL
- PLT [5]: 555.0 ± 147.7 103/μL
- RBC-H [5]: 8.3 ± 0.6 106/μL
- WBC-H [5]: 4.5 ± 1.0 103/μL
- ALP, plasma [5]: 71.8 ± 4.7 U/L
- ALT, plasma [5]: 28.3 ± 1.7 U/L
- AST, plasma [5]: 57.8 ± 12.8 U/L
- BUN, plasma [5]: 18.3 ± 0.7 mg/dL
- CREAT (creatinine), plasma [5]: 0.2 ± 0.0 mg/dL
- GLU (glucose), plasma [5]: 263.8 ± 9.9 mg/dL
- HCT [6]: 47.4 ± 4.3%
- HGB [6]: 11.9 ± 0.9 g/dL
- MCHC [6]: 25.1 ± 3.3 g/dL
- MCV [6]: 55.4 ± 4.8 fL
- PLT [6]: 413.0 ± 111.2 103/μL
- RBC-H [6]: 8.6 ± 0.8 106/μL
- WBC-H [6]: 5.0 ± 1.8 103/μL
- ALP, plasma [6]: 78.3 ± 5.2 U/L
- ALT, plasma [6]: 28.5 ± 2.5 U/L
- AST, plasma [6]: 42.8 ± 1.9 U/L
- BUN, plasma [6]: 20.5 ± 0.8 mg/dL
- CREAT (creatinine), plasma [6]: 0.2 ± 0.0 mg/dL
- GLU (glucose), plasma [6]: 248.5 ± 12.0 mg/dL
- HCT [7]: 47.8 ± 4.9%
- HGB [7]: 12.5 ± 0.3 g/dL
- MCHC [7]: 26.3 ± 2.2 g/dL
- MCV [7]: 53.3 ± 5.1 fL
- PLT [7]: 580.3 ± 119.8 103/μL
- RBC-H [7]: 9.0 ± 0.1 106/μL
- WBC-H [7]: 7.9 ± 1.4 103/μL
- ALP, plasma [7]: 63.0 ± 3.4 U/L
- ALT, plasma [7]: 48.0 ± 4.8 U/L
- AST, plasma [7]: 48.5 ± 4.50 U/L
- BUN, plasma [7]: 20.3 ± 0.2 mg/dL
- CREAT (creatinine), plasma [7]: 0.2 ± 0.0 mg/dL
- GLU (glucose), plasma [7]: 272.3 ± 15.4 mg/dL
- ALT level versus control (treated males, 90 days): did not show a significant change
